Measured values taken from patent US9377453B2, “Systems and methods for detection of cellular stress” (RAMOT AT TEL AVIV UNIVERSITY LTD., priority 2010, dated 2016).
“Also recorded” adds a separate entry of the source.

Tested on: CHO cells
Assay: Subcellular localization of Cy3-labeled tRNA in CHO cells treated with puromycin
Type: cell-based, Chinese hamster
Conditions: puromycin 1 mM, 0.5 h, 7 h post transfection; treated vs untreated CHO cells
Procedure: Chinese hamster ovary cells (CHO-Ki) were maintained in nutrient mixture F-12 (Ham) supplemented with 10% (v/v) fetal calf serum, 5 mM L-glutamine and antibiotics (all from Biological Industries).
Transfection—Cells were seeded in the day preceding the transfection (1.5×10^5 cells, 12 mm coverslips, in 24-well plates). Transfection was with 3 μg of yeast labeled-bulk tRNA (Interferin™, polyplus-transfection, according to manufacture's instructions). For DNA transfection (pSuper-retro-GFP), 9×10^4 cells/well were transfected with 1 μg DNA (TransIT-LT1 transfection reagent, according to manufacture's protocol). The following day, cells were re-transfected with labeled tRNA as described above.
Quantitative image analysis—For quantitative analysis of spatial distribution of the labeled tRNA and additional cellular markers, the entire cell volume was imaged by spinning disk confocal microscopy (0.15 μm between planes of the z-stack) with a 100× lens and 1×1 “on chip binning” yielding a pixel size of 100×100 nm; and deconvolved with the constrained iterative algorithm of Slidebook™ which employs an experimentally measured point spread function (PSF). […]

## COc1ccc(C[C@H](N)C(=O)N[C@H]2[C@@H](O)[C@H](n3cnc4c(N(C)C)ncnc43)O[C@@H]2CO)cc1 [puromycin]
  Nuclear localization of labeled tRNA (tRNA signal co-localizing with Hoechst signal): marked accumulation of tRNA in the nucleus; also recorded: increase in nuclear localization of labeled tRNA
